The record followed here is paper PMC6627558, “Structures and Bioactivities of Six New Triterpene Glycosides, Psolusosides E, F, G, H, H1, and I and the Corrected Structure of Psolusoside B from the Sea Cucumber Psolus fabricii” (Marine Drugs, 2019).

Structures are written as SMILES. Counter-ions that a name gives are not always drawn. Bounds are passed on as bounds.

Usually EC50 stands for the midpoint of the concentration-response curve.

In series [1] the test system is mouse neuroblastoma Neuro 2A cells. As to the kind of experiment: Cytotoxicity against neuroblastoma Neuro 2A cells (nonspecific esterase activity assay). It is filed as cell-based. The following applies: mouse neuroblastoma Neuro 2A cells. As for the experimental part:
(§1) The museum tetraploid strain of murine ascite Ehrlich carcinoma cells from the All-Russian Oncology Center (Moscow, Russia) was used. The cells were separated from the ascites, which were collected on day 7 after inoculation in mouse CD-1 line. The cells were washed of the ascites triply and resuspended in RPMI-1640 medium containing 8 μg/mL gentamicin (BioloT, St-Petersburg, Russia). Neuroblastoma Neuro 2A cells were cultured in DMEM medium containing 10% fetal bovine serum (FBS), (BioloT, St-Petersburg, Russia) and normal epithelial JB-6 cells were cultured in DMEM medium containing 5% fetal bovine serum (FBS), (BioloT, St-Petersburg, Russia) and 1% penicillin/streptomycine (Invitrogen). The HT-29 (ATCC # HTB-38) human colon cancer cell line was grown in monolayer in McCoy’s 5A medium supplemented with 10% (v/v) heat-inactivated FBS, 2 mM L-glutamine, and 1% penicillin-streptomycin in a humidified atmosphere containing 5% CO2. Cells were maintained in a sterile environment and kept in an incubator at 5% CO2 and 37 °C to promote growth. HT-29 cells were sub-cultured every 3–4 days by rinsing with phosphate buffered saline (PBS), adding trypsin to detach the cells from the tissue culture flask, and transferring 10%–20% of the harvested cells to a new flask containing fresh growth media.
(§2) Cytotoxic activity against ascite form of mouse Ehrlich carcinoma cells was investigated by nonspecific esterase activity assay. In total, 10µL of the test substance solution and 100 μL of the cell suspension were placed into each well of a 96-well microplate. The plate was incubated in a CO2 incubator at 37 °C for 1 or 24 h. A stock solution of the probe fluorescein diacetate (FDA; Sigma, St. Louis, MO, USA) in DMSO (1 mg/mL) was prepared. After incubation of the cells with test compounds, 10 μL of FDA solution (50 μg/mL) was added to each well and the plate was incubated at 37 °C for 15 min. Cells were washed with PBS, and fluorescence was measured with a Fluoroskan Ascent plate reader (Thermo Labsystems, Helsinky, Finland) at λex = 485 nm and λem = 518 nm. All experiments were repeated in triplicate. Cytotoxic activity was expressed as the percent of cell viability. Nonspecific esterase activity assay has been used for determination of cytotoxicity against neuroblastoma Neuro 2A and normal epithelial JB-6 cells.

In series [2] the test system is normal epithelial JB-6 cells. As to the kind of experiment: Cytotoxicity against normal epithelial JB-6 cells (nonspecific esterase activity assay). It is filed as cell-based, mouse. Particulars: normal epithelial JB-6 cells. The procedure: as §1, §2
Series [3] concerns human colorectal adenocarcinoma HT-29 cells. Description: Soft agar assay, colony formation and growth of HT-29 cells. It is filed as cell-based. Particulars: 0–10 μM, 14 days, read-out: Soft Agar Assay ICCF50 (inhibition of colony formation). The procedure:
as §1
The HT-29 cells (8.0 × 10^3) were seeded in 6-well plate and treated with the tested compounds at concentrations range 0–10 μM in 1 mL of 0.3% Basal Medium Eagle (BME) agar containing 10% FBS, 2mM L-glutamine, and 25 μg/mL gentamicin. The cultures were maintained at 37 °C in a 5% CO2 incubator for 14 days, and the cell’s colonies were scored using a microscope “Motic AE 20” (Scientific Instrument Company, Campbell, CA, USA) and the Motic Image Plus version 2.0 (Scientific Instrument Company, Campbell, CA, USA) computer program.

For series [4], the system named is ascite form of mouse Ehrlich carcinoma cells. Description: Cytotoxic activity against ascite form of mouse Ehrlich carcinoma cells (nonspecific esterase / MTT assay). The format is cell-based. The procedure:
as §1, §2
(§3) The solutions of tested substances in different concentrations (20 µL) and cell suspension (200 µL) were added in wells of 96-well plate and incubated over night at 37 °C and 5% CO2. After incubation, the cells were sedimented by centrifugation, 200 µL of medium from each well were collected, and 100 µL of pure medium were added. Then, 10 µL of MTT solution […] (Sigma, St. Louis, MO, USA) were added in each well. The plate was incubated for 4 h, after which 100 µL SDS-HCl were added to each well, and the plate was incubated at 37 °C for 4–18 h. Optical density was measured at 570 nm and 630–690 nm. Cytotoxic activity of the substances was calculated as the concentration that caused 50% metabolic cell activity inhibition (IC50). The MTT assay has been used for determination of cytotoxic activity against Ehrlich carcinoma cells.
Background: Tetrazolium assays rely on reduction of a dye to a coloured formazan, in cell work by metabolically active cells.

Another series has as its system mouse erythrocytes. As to the kind of experiment: Hemolytic activity against mouse erythrocytes. The format is cell-based. The procedure: (§4) Blood was taken from CD-1 mice (18–20 g). The mice were anesthetized with diethyl ether, their chests were rapidly opened, and blood was collected in cold (4 °C) 10 mM phosphate-buffered saline, pH 7.4 (PBS) without anticoagulant. Erythrocytes were washed 3 times in PBS using at least 10 vol. of washing solution by centrifugation (2000 rpm) for 5 min. Erythrocytes were used at a concentration that provided an optical density of 1.0 at 700 nm for a non-hemolyzed sample. Then, 20 μL of a water solution of test substance with a fixed concentration was added to a well of a 96-well plate containing 180 μL of the erythrocyte suspension. Erythrocyte suspension was incubated with substances for 24 h at 37 °C. After that, the optical density of the obtained solutions was measured and ED50 for hemolytic activity of each compound was calculated.

The test system of series [5] is human colorectal adenocarcinoma HT-29 cells. As to the kind of experiment: MTS assay, cell viability of HT-29 cells. It is filed as cell-based. The following applies: 0–20 μM, 24 h. As for the experimental part: as §1
The HT-29 cells (1.0 × 10^4/well) were seeded in 96-well plates for 24 h at 37 °C in 5% CO2 incubator. The cells were treated with the tested substances at concentrations range from 0 to 20 μM for an additional 24 h. Subsequently, cells were incubated with 15 μL MTS reagent for 3 h and the absorbance in each well was measured at 490/630 nm using microplate reader “Power Wave XS” (Bio Tek, Winooski, VT, USA). All the experiments were repeated three times, and the mean absorbance values were calculated. The results are expressed as the percentage of inhibition that produced a reduction in absorbance by compound’s treatment compared to the non-treated cells (control).

Series [6] is described as follows: Cytotoxicity against neuroblastoma Neuro 2A cells (nonspecific esterase activity assay). It is filed as cell-based, mouse. Particulars: mouse neuroblastoma Neuro 2A cells. As for the experimental part: as §1, §2
Series [7] can be described thus: Cytotoxicity against normal epithelial JB-6 cells (nonspecific esterase activity assay). The format is cell-based, mouse. Particulars: mouse, normal epithelial JB-6 cells. The procedure:
as §1, §2

Series [8] is described as follows: Cytotoxic activity against ascite form of mouse Ehrlich carcinoma cells (nonspecific esterase / MTT assay). It is filed as cell-based. The following applies: ascite form of mouse Ehrlich carcinoma cells; read-out: Cytotoxicity EC50, Ehrlich carcinoma. The procedure:
as §1, §2, §3

Series [9] in a line: Hemolytic activity against mouse erythrocytes. It is filed as cell-based. The following applies: CD-1, mouse erythrocyte suspension, pH 7.4, 24 h at 37 °C, read-out: Cytotoxicity EC50, Erhythrocytes (hemolytic activity). As for the experimental part: as §4

Consider `C=C(C)CCC[C@]1(C)OC(=O)[C@]23CC=C4[C@@H](CC[C@H]5C(C)(C)[C@@H](O[C@@H]6OC[C@@H](O)[C@H](O)[C@H]6O[C@@H]6O[C@H](C)[C@@H](O[C@@H]7O[C@H](COS(=O)(=O)[O-])[C@@H](O)[C@H](O[C@@H]8O[C@H](COS(=O)(=O)[O-])[C@@H](O)[C@H](OC)[C@H]8O)[C@H]7O)[C@H](O)[C@H]6O)CC[C@]45C)[C@]2(C)CC(=O)[C@@H]31.[Na+].[Na+]` [Psolusoside A, 3β-O-[6-O-sodium sulfate-3-O-methyl-β-D-glucopyranosyl-(1→3)-6-O-sodium-sulfate-β-D-glucopyranosyl-(1→4)-β-D-quinovopyranosyl-(1→2)-β-D-xylopyranosyl]-16-ketoholosta-9(11),25-diene, reference compound], for which the EC50 in series [1] was found to be 2.9 µM; in series [2] it was 7.5 µM; in series [4] (ascite form of mouse Ehrlich carcinoma cells, read-out: Cytotoxicity EC50, Ehrlich carcinoma), 30.9 µM; in the series with mouse erythrocytes (24 h at 37 °C, read-out: Cytotoxicity EC50, Erhythrocytes (hemolytic activity)), 1.4 µM. For the same compound, the IC50 in series [3] was > 10 µM; in [5] it was > 20 µM. Besides, the “cytotoxic action against mouse Ehrlich carcinoma cells (in words)” value in series [4] (ascite form) is reported as “moderate cytotoxic action”.

Regarding `C=C(C)CCC[C@]1(C)OC(=O)[C@]23CC[C@@H]4C(=CC[C@H]5C(C)(C)[C@@H](O[C@@H]6OC[C@@H](O[C@@H]7O[C@H](COS(=O)(=O)O)[C@@H](O)[C@H](O)[C@H]7O)[C@H](O)[C@H]6O[C@@H]6OC[C@@H](O[C@@H]7O[C@H](COS(=O)(=O)O)[C@@H](O)[C@H](O)[C@H]7O)[C@H](O)[C@H]6O)CC[C@]45C)[C@]2(C)C[C@H](OC(C)=O)[C@@H]31` [Psolusoside I (7), 3β-O-{6-O-sodium sulfate-β-D-glucopyranosyl-(1→4)-β-D-xylopyranosyl-(1→2)-[6-O-sodium sulfate-β-D-glucopyranosyl-(1→4)]-β-D-xylopyranosyl}-16β-acetoxyholosta-7,25-diene], the EC50 in [6] worked out at 26.8 µM; in [7] it was 37.2 µM; in series [8], 87.4 µM. For the same compound, the IC50 in series [3] (Homo sapiens, 336 h) is 10 ± 0.4 µM; in [5] (Homo sapiens), > 20 µM. In addition, in series [9], the EC50 at 24 h was found to be 18.3 µM. Further, the “hemolytic activity (in words)” value with mouse erythrocytes is reported as “moderate hemolytic activity”.
